System: Caco-2 cells
Experiment: Caco-2 permeability
Format: in vitro ADME
Details: bidirectional Caco-2 assay; values >/=1.0 indicate active cellular efflux
Description: (iii) Caco-2 Permeability
Caco-2 cells were seeded onto Millipore Multiscreen plates at 1×10^5 cells/cm^2, and were cultured for 20 days. Assessment of compound permeability was subsequently conducted. The compounds were applied to the apical surface (A) of cell monolayers and compound permeation into the basolateral (B) compartment was measured. This was performed in the reverse direction (B−A) to investigate active transport. A permeability coefficient value, Papp, for each compound, a measure of the rate of permeation of the compound across the membrane, was calculated. Compounds were grouped into low (Papp</=[…]) or high (Papp>/=[…]) absorption potential based on comparison with control compounds with established human absorption.
For assessment of a compound's ability to undergo active efflux, the ratio of basolateral (B) to apical (A) transport compared with A to B was determined. Values of B−A/A−B>/=1.0 indicated the occurrence of active cellular efflux. All of the compounds tested through the Caco-2 permeability screen had Papp values>/=1.0×10^6 cm/s.

B−A/A−B asymmetry index: less than 1.0
SMILES: CN1CCN(Cc2cc3nc(-c4cccc(O)c4)nc(N4CCOCC4)c3s2)CC1 [PI540]

— patent publication US7872003B2, “Pharmaceutical compounds” (F. Hoffmann-La Roche AG, priority 2005, dated 2011)
